Measurements taken from publication PMC12040169 (PLOS Biology, 2025).

Test: in vitro
Details: human, hela cells, % viability
Work on `C=CCOc1c(Br)cc(CNc2cccc(C(=O)O)c2)cc1OC` [CBK074581] yielded a viability at 28.5 h, 10 µM of 97.3%.
Compound `COc1cc(CNc2ccc(N3CCCCC3)cc2)cc(Cl)c1OCc1cccs1` [CBK074586] has a viability at 28.5 h, 10 µM of 101%.
`COc1ccc(-c2cc(-c3c(O)ccc4c(C)cc(=O)oc34)nc(N)n2)cc1OC` [CBK074619] gave a viability at 28.5 h, 10 µM of 85%.
For `COc1ccc(C(=O)CN2CCN(CCN3C(=O)c4cccc5cccc(c45)C3=O)CC2)cc1` [CBK074628], the viability at 28.5 h, 10 µM was 75.7%.
Work on `O=C(CN1CCCN(c2ncc(C(F)(F)F)cc2Cl)CC1)Nc1c(F)cccc1F` [CBK074636] yielded a viability at 28.5 h, 10 µM of 92.5%.
`OC(CNCCNc1nccc(C(F)(F)F)n1)Cn1ccc2ccccc21` (stereo not drawn) [CBK074642] gave a viability at 28.5 h, 10 µM of 106%.
Compound `OC(COc1ccc2c(c1)OCO2)CN1CCCN(c2nc3ccc(Cl)cc3s2)CC1` (stereo not drawn) [CBK074646] has a viability at 28.5 h, 10 µM of 102%.
For `OC(CSc1ccccc1)CN1CCC(Nc2nccc(C(F)(F)F)n2)CC1` (stereo not drawn) [CBK074648], the viability at 28.5 h, 10 µM was 94.5%.
Work on `OC(CNCc1ccc2c(c1)OCO2)COc1ccc(Cl)c(Cl)c1` (stereo not drawn) [CBK074649] yielded a viability at 28.5 h, 10 µM of 89.3%.
Compound `O=S(=O)(NCCCN1CCN(Cc2ccccc2)CC1)c1cccc(Cl)c1Cl` [CBK074655] has a viability at 28.5 h, 10 µM of 114%.
Compound `COc1ccc(CCNc2ccc(C(F)(F)F)cc2[N+](=O)[O-])cc1OC` [CBK074656] has a viability at 28.5 h, 10 µM of 87.4%.
With `OC(CSc1ccccc1)CN1CCN(c2nc(-c3ccccc3)ns2)CC1` (stereo not drawn) [CBK074677C] the viability at 28.5 h, 10 µM was 110%.
`O=C(CN1CCN(c2ccc(C(F)(F)F)cn2)CC1)Nc1ccc2c(c1)OCO2` [CBK074680] showed a viability at 28.5 h, 10 µM of 102%.
In the case of `OC(CNCc1ccc2c(c1)OCO2)CSc1ccccc1` (stereo not drawn) [CBK074684], the viability at 28.5 h, 10 µM is reported as 101%.
Work on `Cc1ccc(OCC(O)CN2CCN(c3nc(-c4ccccc4)ns3)CC2)c([N+](=O)[O-])c1` (stereo not drawn) [CBK074696] yielded a viability at 28.5 h, 10 µM of 95.3%.
In the case of `CC(C(=O)c1ccc(-c2ccccc2F)cc1)N1CCN(c2ccc(C#N)cc2)CC1` (stereo not drawn) [CBK074706], the viability at 28.5 h, 10 µM is reported as 92%.
In the case of `OC(CN1CCN(c2ccc(C(F)(F)F)cn2)CC1)c1ccc2c(c1)OCCO2` (stereo not drawn) [CBK074707], the viability at 28.5 h, 10 µM is reported as 104%.
`Cc1ccc(Oc2ncccc2NC(=O)CN2CCC(NC(=O)c3ccccc3)CC2)c2c1CCC2` [CBK074715] showed a viability at 28.5 h, 10 µM of 112%.
With `O=C(NC1CCN(Cc2c(F)cccc2Cl)CC1)C1CCN(C(=O)OCc2ccccc2)CC1` [CBK074720] the viability at 28.5 h, 10 µM was 108%.
For `O=C(CN1CCN(c2nc3cc(Cl)ccc3s2)CC1)c1ccc2c(c1)OCCCO2` [CBK074737], the viability at 28.5 h, 10 µM was 96.6%.
`O=S(=O)(c1cc(Cl)sc1Cl)N1CCN(Cc2ccc3c(c2)OCO3)CC1` [CBK074743] gave a viability at 28.5 h, 10 µM of 92.6%.
`O=S(=O)(c1ccc(F)cc1F)N1CCN(Cc2ccc3c(c2)OCO3)CC1` [CBK074744] showed a viability at 28.5 h, 10 µM of 91.7%.
Work on `O=C(Nc1cccc2ccccc12)N1CCN(Cc2ccc3c(c2)OCO3)CC1` [CBK074747] yielded a viability at 28.5 h, 10 µM of 89%.
Compound `O=C(O)c1ccccc1C(=O)N1CCN(Cc2ccc3c(c2)OCO3)CC1` [CBK074751] has a viability at 28.5 h, 10 µM of 97.9%.
For `O=C(Nc1ccc(OC(F)(F)F)cc1)N1CCN(Cc2ccc3c(c2)OCO3)CC1` [CBK074754], the viability at 28.5 h, 10 µM was 99.5%.
Compound `O=C(c1cc(C(F)(F)F)cc(C(F)(F)F)c1)N1CCN(Cc2ccc3c(c2)OCO3)CC1` [CBK074756] has a viability at 28.5 h, 10 µM of 98.2%.
With `OC(CN1CCN(Cc2ccc3c(c2)OCO3)CC1)c1ccccc1` (stereo not drawn) [CBK074759] the viability at 28.5 h, 10 µM was 82.8%.
In the case of `COc1cc(OCc2ccccc2)ccc1CN1CCN(Cc2ccc3c(c2)OCO3)CC1` [CBK074768], the viability at 28.5 h, 10 µM is reported as 97.9%.
Work on `O=C(O)CC(CC(=O)N1CCN(Cc2ccc3c(c2)OCO3)CC1)c1ccccc1` (stereo not drawn) [CBK074769] yielded a viability at 28.5 h, 10 µM of 96%.
For `O=C(CNC1CCN(Cc2ccccc2)CC1)Nc1ccc(Cl)cc1C(=O)c1ccccc1Cl` [CBK074770], the viability at 28.5 h, 10 µM was 107%.
`c1ccc(CN2CCN(Cc3c[nH]c(-c4ccccc4)n3)CC2)cc1` [CBK074775] gave a viability at 28.5 h, 10 µM of 84.6%.
For `O=C(CN1CCN(C(=O)C2COc3ccccc3O2)CC1)Nc1ccc2c(c1)OCCO2` (stereo not drawn) [CBK074777], the viability at 28.5 h, 10 µM was 111%.
`O=C(CN1CCN(Cc2ccccc2)CC1)Nc1ccc(C(F)(F)F)cc1Cl` [CBK074781] showed a viability at 28.5 h, 10 µM of 103%.
In the case of `O=C(CN1CCN(Cc2ccccc2)CC1)Nc1ccccc1Oc1ccccc1` [CBK074782], the viability at 28.5 h, 10 µM is reported as 90.2%.
For `O=C(CCN1CCN(C(c2ccccc2)c2ccccc2)CC1)c1ccccc1` [CBK074788], the viability at 28.5 h, 10 µM was 111%.
`O=C(Nc1ccc(OCc2ccccc2)cc1)OCC1CN(Cc2ccccc2)CCO1` (stereo not drawn) [CBK074792] gave a viability at 28.5 h, 10 µM of 102%.
Work on `O=S(=O)(CCN1CCN(Cc2ccccc2)CC1)c1ccc(F)cc1` [CBK074809] yielded a viability at 28.5 h, 10 µM of 108%.
Work on `O=C1c2ccccc2C(=O)N1CCN1CCN(Cc2ccccc2)CC1` [CBK074813] yielded a viability at 28.5 h, 10 µM of 110%.
With `COc1ccc(CCNc2ccccc2[N+](=O)[O-])cc1OC` [CBK074819] the viability at 28.5 h, 10 µM was 104%.
`Nc1ccccc1SC(CC(=O)c1ccccc1)c1ccc2c(c1)OCO2` (stereo not drawn) [CBK074823] showed a viability at 28.5 h, 10 µM of 80.2%.
`O=S(=O)(Cc1ccc(Cl)cc1)N1CCN(Cc2ccc3c(c2)OCO3)CC1` [CBK074827] gave a viability at 28.5 h, 10 µM of 101%.

Same assay, conditions: human, hela cells, % viability, bulk resorufin, single well
`COc1ccc(CCNCc2ccc3c(c2)OCO3)cc1` [CBK074488] gave a viability at 28.5 h, 10 µM of 95.7%.
